The source of these data is ChEMBL document CHEMBL3351883, “β-Agarofurans and Sesquiterpene Pyridine Alkaloids from Maytenus spinosa” (J Nat Prod, 2014).

SMILES strings stand for the structures. Activity calls are given as the source filed them. No cut-off for these calls is given here.

The subject of the first data set is Human immunodeficiency virus 1. The experiment in a line: Antiviral activity against HIV1 infected in human C8166 cells after 72 hrs by p24 antigen based ELISA. It counts as functional.
Conditions: not given
Regarding `CC(=O)OC[C@]12[C@H](OC(C)=O)[C@@H](OC(C)=O)[C@@H]3[C@@H](O)[C@@]14O[C@@]3(C)COC(=O)c1cnccc1CCC(C)C(=O)O[C@@H]([C@H](OC(C)=O)[C@@H]2OC(C)=O)[C@]4(C)O` (stereo partly specified), the inhibition entry is “inactive”.
Still for that read-out and setting: the result for `CC(=O)OC[C@]12[C@H](OC(C)=O)[C@H](OC(C)=O)[C@@H]3[C@@H](OC(C)=O)[C@@]14O[C@@]3(C)COC(=O)c1cccnc1CCC(C)C(=O)O[C@@H]([C@H](OC(C)=O)[C@@H]2OC(C)=O)[C@]4(C)O` (stereo partly specified) reads “inactive”; that for `CC(=O)O[C@@H]1[C@H]2[C@@H](OC(=O)c3ccccc3)[C@@H](OC(=O)c3ccccc3)[C@]3(C)[C@@H](OC(C)=O)[C@@H](O)C[C@@H](C)[C@@]13OC2(C)C`, “inactive”.
With `CC(=O)OC[C@]12[C@H](OC(C)=O)[C@@H](OC(C)=O)[C@@H]3[C@@H](OC(C)=O)[C@@]14O[C@@]3(C)COC(=O)c1cccnc1CCC(C)C(=O)O[C@@H]([C@H](OC(C)=O)[C@@H]2OC(C)=O)[C@]4(C)O` (stereo partly specified), the inhibition result is “inactive”.
Same read-out and setting: the result for `CC(=O)O[C@@H]1[C@@H]2[C@@H](OC(C)=O)[C@]3(OC2(C)C)[C@H](C)C[C@H](OC(C)=O)[C@H](OC(=O)c2ccccc2)[C@@]3(C)[C@@H]1OC(C)=O` reads “inactive”; that for `CC(=O)OC[C@@]12[C@H](OC(C)=O)[C@H](OC(C)=O)[C@@H]3[C@@H](OC(=O)c4ccccc4)[C@@]14O[C@@]3(C)COC(=O)c1cccnc1CC[C@H](C)C(=O)O[C@@H]([C@H](OC(C)=O)[C@@H]2OC(C)=O)[C@]4(C)O`, “inactive”.
Same read-out and setting: with `CC(=O)OC[C@]12[C@H](OC(C)=O)[C@H](OC(=O)c3ccccc3)[C@@H]3[C@@H](OC(C)=O)[C@]1(OC3(C)C)[C@H](C)C[C@H](OC(C)=O)[C@@H]2OC(C)=O` the entry was “inactive”.
Consider `CC(=O)OC[C@]12[C@H](OC(C)=O)C(=O)[C@@H]3[C@@H](O)[C@@]14O[C@@]3(C)COC(=O)c1cnccc1CCC(C)C(=O)O[C@@H]([C@H](OC(C)=O)[C@@H]2OC(C)=O)[C@]4(C)O` (stereo partly specified), for which the inhibition entry was “inactive”.
Still for that read-out and setting: with `CC(=O)OC[C@]12[C@H](OC(=O)c3ccccc3)[C@H](OC(=O)c3ccccc3)[C@@H]3[C@@H](OC(C)=O)[C@]1(OC3(C)C)[C@H](C)C[C@H](O)[C@@H]2OC(C)=O` the entry was “inactive”.
The same measure, in the same setting: the result for `CC(=O)O[C@@H]1[C@@H]2[C@@H](OC(C)=O)[C@]3(OC2(C)C)[C@H](C)C[C@H](O)[C@H](OC(C)=O)[C@@]3(C)[C@@H]1OC(=O)c1ccccc1` reads “inactive”; that for `CC(=O)OC[C@]12[C@H](OC(C)=O)[C@@H](OC(C)=O)[C@@H]3C(=O)[C@@]14O[C@@]3(C)COC(=O)c1cnccc1CCC(C)C(=O)O[C@@H]([C@H](OC(C)=O)[C@@H]2OC(C)=O)[C@]4(C)O` (stereo partly specified), “inactive”; that for `CC(=O)OC[C@]12[C@H](OC(C)=O)C(=O)[C@@H]3[C@@H](OC(C)=O)[C@@]14O[C@@]3(C)COC(=O)c1ncccc1C[C@H](C)[C@H](C)C(=O)O[C@H]([C@@H](OC(C)=O)[C@@H]2OC(C)=O)[C@H]4C`, “inactive”.
As for `CCC(C)C(=O)O[C@@H]1[C@H](OC(C)=O)[C@@H]2[C@@H](OC(C)=O)[C@]3(OC2(C)C)[C@H](C)C[C@H](OC(C)=O)[C@H](OC(=O)c2ccccc2)[C@@]13C` (stereo partly specified), the inhibition entry was “inactive”.
Regarding `CC(=O)OC[C@]12[C@H](OC(C)=O)[C@@H](OC(C)=O)[C@@H]3[C@@H](OC(=O)c4ccco4)[C@@]14O[C@@]3(C)COC(=O)c1cnccc1CCC(C)C(=O)O[C@@H]([C@H](OC(C)=O)[C@@H]2OC(C)=O)[C@]4(C)O` (stereo partly specified), the inhibition entry was “inactive”.
On the same count and under the same terms, with `CC(=O)OC[C@]12[C@H](OC(C)=O)[C@@H](OC(C)=O)[C@@H]3[C@@H](OC(=O)c4ccc(Br)cc4)[C@@]14O[C@@]3(C)COC(=O)c1cnccc1CCC(C)C(=O)O[C@@H]([C@H](OC(C)=O)[C@@H]2OC(C)=O)[C@]4(C)O` (stereo partly specified) the entry was “inactive”; with `CC(=O)OC[C@]12[C@H](OC(C)=O)[C@@H](OC(C)=O)[C@@H]3[C@@H](OC(=O)c4cccnc4)[C@@]14O[C@@]3(C)COC(=O)c1cnccc1CCC(C)C(=O)O[C@@H]([C@H](OC(C)=O)[C@@H]2OC(C)=O)[C@]4(C)O` (stereo partly specified), “inactive”.
On the same count and under the same terms, the result for `CCCCCCCCCCCC(=O)O[C@@H]1[C@H]2[C@H](OC(C)=O)[C@@H](OC(C)=O)[C@]3(COC(C)=O)[C@@H](OC(C)=O)[C@@H](OC(C)=O)[C@@H]4OC(=O)C(C)CCc5ccncc5C(=O)OC[C@]2(C)O[C@]13[C@@]4(C)O` (stereo partly specified) reads “inactive”.
On the same count and under the same terms, the result for `CC(=O)OC[C@]12[C@H](OC(=O)c3ccccc3)[C@@H](OC(C)=O)[C@@H]3[C@@H](OC(C)=O)[C@]1(OC3(C)C)[C@H](C)C[C@H](O)[C@@H]2OC(C)=O` reads “inactive”; that for `CC(=O)OC[C@]12[C@H](OC(C)=O)[C@@H](O)[C@@H]3[C@@H](O)[C@@]14O[C@@]3(C)COC(=O)c1cnccc1CCC(C)C(=O)O[C@@H]([C@H](OC(C)=O)[C@@H]2OC(C)=O)[C@]4(C)O` (stereo partly specified), “inactive”; that for `CC(=O)O[C@@H]1[C@H]2[C@@H](OC(=O)c3ccccc3)[C@@H](OC(=O)c3ccccc3)[C@]3(C)[C@@H](OC(C)=O)[C@@H](OC(=O)c4ccccc4)C[C@@H](C)[C@@]13OC2(C)C`, “inactive”.
`CCC(C)C(=O)O[C@@H]1[C@@H]2[C@@H](OC(C)=O)[C@]3(OC2(C)C)[C@H](C)C[C@H](O)[C@H](OC(C)=O)[C@@]3(COC(C)=O)[C@@H]1OC(=O)c1ccccc1` (stereo partly specified): the inhibition entry is “inactive”.
Still for that read-out and setting: the result for `CC(=O)OC[C@]12[C@H](OC(C)=O)[C@@H](OC(C)=O)[C@@H]3[C@@H](OC(C)=O)[C@@]14O[C@@]3(C)COC(=O)c1cnccc1CCC(C)C(=O)O[C@@H]([C@H](OC(C)=O)[C@@H]2OC(C)=O)[C@]4(C)O` (stereo partly specified) reads “inactive”.
The same measure, in the same setting: the result for `CC(=O)OC[C@]12[C@H](OC(C)=O)[C@H](OC(C)=O)[C@@H]3[C@@H](OC(C)=O)[C@@]14O[C@@]3(C)COC(=O)c1cnccc1CCC(C)C(=O)O[C@@H]([C@H](OC(C)=O)[C@@H]2OC(C)=O)[C@]4(C)O` (stereo partly specified) reads “inactive”; that for `CC(=O)OC[C@]12[C@H](OC(C)=O)[C@@H](OC(C)=O)[C@@H]3[C@@H](OC(=O)N(C)C)[C@@]14O[C@@]3(C)COC(=O)c1cnccc1CCC(C)C(=O)O[C@@H]([C@H](OC(C)=O)[C@@H]2OC(C)=O)[C@]4(C)O` (stereo partly specified), “inactive”.
As to `CC(=O)OC[C@]12[C@@H](OC(C)=O)[C@@H](OC(=O)c3ccccc3)[C@@H]3C[C@]1(OC3(C)C)[C@H](C)C[C@H](OC(C)=O)[C@@H]2OC(C)=O`, the “inhibition (INH)” value was determined as 64.4%.

Tested on in the next data set: not listed separately
Nature of the data set: Cytotoxicity against human C8166 cells assessed as cell viability by MTT assay. It counts as cell-based. The following applies: read-out: Activity. (Tetrazolium dyes change colour on reduction, which living cells bring about.)
For `CC(=O)OC[C@]12[C@@H](OC(C)=O)[C@@H](OC(=O)c3ccccc3)[C@@H]3C[C@]1(OC3(C)C)[C@H](C)C[C@H](OC(C)=O)[C@@H]2OC(C)=O`, the viability stood at 96%.
